Patent US20210023012A1, “Solid Pharmaceutical Compositions for Treating HCV” (AbbVie Inc., priority 2019, published 2021)

Key:
[1] = Blood-to-plasma ratio; format: in vitro ADME; conditions: human, whole blood/plasma
[2] = Binding to human plasma proteins; format: in vitro ADME; conditions: read-out: % Bound to human plasma proteins (converted)
[3] = Phase 1 single-dose crossover: bioavailability and food effect of Compound 1/Compound 2 bilayer tablets; format: in vivo, human; conditions: film-coated vs uncoated bilayer tablets, additional studies
[4] = as above; format: in vivo, human; conditions: for Cmax / AUC(0-inf) / AUC(0-t) / half-life / Tmax: human, in vivo, oral, N = 23; for Cmax / AUC(0-inf) / AUC(0-t): geometric mean; for half-life: harmonic mean; for Tmax: median
Method: Phase 1, single-dose, four-period, randomized, complete crossover clinical trials were conducted to determine the bioavailability and food effect of the Compound 1/Compound 2 film-coated bilayer tablets. Tablets described in Table 1b were used in Regimens A, B and C, and separate tablets containing either Compound 1 or Compound 2 were used in Regimen D. Subjects took a single dose of Compound 1/Compound 2 on Day 1 of each Period. There was a washout of 4 days between doses. • i. Regimens A and D: study drugs were taken under fasting conditions. • ii. Regimen B: study drugs were taken approximately 30 minutes after start of moderate-fat breakfast (about 30% calories from fat). • iii. Regimen C: study drugs were taken approx. 30 minutes after start of high-fat breakfast (50% calories from fat). For Regimens A, B and C, the single dose consisted of three tablets of Table 1b, each tablet contains 100 mg/40 mg Compound 1/Compound 2. For Regimen D, the single dose contained three tablets of Compound 1, each of which contained 100 mg Compound 1, as well as three tablets of Compound 2, each of which contained 40 mg Compound 2. [table] [table]

[5] = Predicted PK exposures (Pop-PK AUC) in pediatric subjects; format: in vivo; set-up: concentration or dose not given beside the values; conditions: human, oral
Source text: The predicted PK exposures (“Pop-PK AUC”) of Compound 1/Compound 2 based on all PK information collected in the study (including data from other study weeks) is shown in Table 13 and Table 13a.

[6] = Pharmacokinetic properties in healthy subjects; format: in vivo, human; conditions: for Tmax: oral, median, single doses
[7] = Single-dose crossover: bioavailability of Compound 1/Compound 2 mini-tablets; format: in vivo, human; conditions: for Cmax / AUC(0-inf) / AUC(0-t) / half-life / Tmax: human, in vivo, oral, N = 14; for Cmax / AUC(0-inf) / AUC(0-t): geometric mean; for half-life: harmonic mean; for Tmax: median
Method: In comparison, when administered with food, the mini-tablets provided an AUC that was only 5% lower than that provided by the regular tablets. […] All of the reference AUCs of the regular tablets were measured under fasting conditions.
14 subjects were enrolled in this study and dosed with co-formulated Compound 1/Compound 2 in mini-tablets. One subject spilled 4 mini-tablets (out of 100-150 total mini-tablets) during dosing of Period 2 (Regimen G) and was not excluded from the analysis. The mini-tablets were prepared according to a process similar to that described in Example 2.

[8] = clinical; conditions: human, in vivo
Source text: Target AUC was derived from the geometric mean of AUC values from a population of adult subjects who received Compound 1 and Compound 2.

[9] = Mass balance studies with [14C] compound, single dose; format: in vivo, human; conditions: single dose of [14C] compound
[10] = Steady-state pharmacokinetics of film-coated granules in pediatric subjects by age group; format: in vivo, human; set-up: Ctrough: unit not given here; conditions: for Ctrough / AUC: Week 2; for AUC: human, oral, film-coated granules
Method: The study was designed to assess the steady state AUC and to assess the pharmacokinetics (PK) of Compound 1/Compound 2 in pediatric subjects by age group. […] Subjects were enrolled in this study and dosed with film-coated granules containing Compound 1/Compound 2 as generally described above in Example 3. [table] An intensive PK sample draw was done at the Week 2 visit with blood samples taken immediately prior to dose (0 hour) and at 2, 4, 6, and 12 hours post dose.

[11] = Regimen A: single dose bilayer tablets 300 mg/120 mg, fasting
[12] = Regimen B: single dose bilayer tablets 300 mg/120 mg with moderate fat breakfast
[13] = Regimen C: single dose bilayer tablets 300 mg/120 mg with high fat breakfast
[14] = Regimen D: single dose separate Compound 1 tablets (3 × 100 mg) and Compound 2 tablets (3 × 40 mg), fasting
[15] = mean systemic exposure with moderate to high fat meals
[16] = Regimen F: single dose mini-tablets 200 mg/120 mg, fasting
[17] = Regimen G: single dose mini-tablets 200 mg/120 mg, non-fasting
[18] = Regimen J: two Compound 1 tablets (100 mg each) and three Compound 2 tablets (40 mg each), fasting

blood plasma ratio [1]: 0.62
fraction unbound [2]: < 0.001
Impact of film-coating on bioavailability [3]: minimal impact
Effect of administration with food on bioavailability ([4]; bilayer tablets): significantly improved
Cmax ([4]; Regimen A: single dose bilayer tablets 300 mg/120 mg (3 × 100 mg/40 mg), fasting): 0.116 µg/mL
AUC(0-inf) [4, 11]: 0.96 µg·h/mL
AUC(0-t) [4, 11]: 0.91 µg·h/mL
half-life [4, 11]: 13.3 h
Tmax [4, 11]: 4 h
AUC(0-inf) [4, 12]: 1.35 µg·h/mL
AUC(0-t) [4, 12]: 1.28 µg·h/mL
Cmax [4, 12]: 0.221 µg/mL
half-life [4, 12]: 13 h
Tmax [4, 12]: 5 h
AUC(0-inf) [4, 13]: 1.46 µg·h/mL
AUC(0-t) [4, 13]: 1.39 µg·h/mL
Cmax [4, 13]: 0.237 µg/mL
half-life [4, 13]: 13.5 h
Tmax [4, 13]: 5 h
AUC(0-inf) [4, 14]: 1.49 µg·h/mL
AUC(0-t) [4, 14]: 1.42 µg·h/mL
Cmax [4, 14]: 0.175 µg/mL
half-life [4, 14]: 12.5 h
Tmax [4, 14]: 4 h
AUC ([5]; blood, Table 13, 3 to <6 years old, N 10, predicted): 1.43 µg·h/mL
AUC ([5]; blood, Table 13, 6 to <9 years old, N 9, predicted): 1.46 µg·h/mL
AUC ([5]; blood, Table 13, 9 to <12 years old, N 10, predicted from all PK information collected in the study): 1.44 µg·h/mL
AUC ([5]; in vivo, Table 13a, 3 to <6 years old, N 10, predicted): 1.76 µg·h/mL
AUC ([5]; in vivo, Table 13a, 6 to <9 years old, N 9, predicted): 1.73 µg·h/mL
AUC ([5]; in vivo, Table 13a, 9 to <12 years old, N 10, predicted): 2.36 µg·h/mL
Metabolism ([6]; Biotransformation): none
Major route of elimination ([6]; human, in vivo): Biliary
Tmax ([6]; human, in vivo, healthy subjects, read-out: Tmax of granules): 3 to 5 h
Tmax ([6]; human, in vivo, healthy subjects, read-out: Tmax of tablets): 5 h
half-life ([6]; human, in vivo, healthy subjects, read-out: t1/2 at steady-state): 23 to 29 h
Effect of meal (relative to fasting) on adult tablets, ↑ [6, 15]: ↑ 40-53%
Effect of meal (relative to fasting) on granules, ↑ [6, 15]: ↑ 56-115%
Effect of administration with food on bioavailability ([7]; co-formulated mini-tablets): significantly increased
Cmax ([7]; Regimen F: single dose mini-tablets 200 mg/120 mg Compound 1/Compound 2, fasting): 0.096 µg/mL
AUC(0-inf) [7, 16]: 0.913 µg·h/mL
AUC(0-t) [7, 16]: 0.863 µg·h/mL
half-life [7, 16]: 13.4 h
Tmax [7, 16]: 4 h
Cmax ([7]; Regimen G: single dose mini-tablets 200 mg/120 mg Compound 1/Compound 2, non-fasting): 0.177 µg/mL
AUC(0-inf) [7, 17]: 1.32 µg·h/mL
AUC(0-t) [7, 17]: 1.25 µg·h/mL
half-life [7, 17]: 13.2 h
Tmax [7, 17]: 3 h
Cmax ([7]; Regimen J: single dose two Compound 1 tablets (100 mg each) and three Compound 2 tablets (40 mg each), fasting): 0.139 µg/mL
AUC(0-inf) [7, 18]: 1.26 µg·h/mL
AUC(0-t) [7, 18]: 1.19 µg·h/mL
half-life [7, 18]: 13.3 h
Tmax [7, 18]: 4.5 h
AUC of mini-tablets higher than that of regular tablets (fasting) ([7]; mini-tablets with food, 120 mg Compound 2): 6%
AUC of mini-tablets lower than that of regular tablets (fasting) ([7]; mini-tablets without food, 200 mg Compound 1 / 120 mg Compound 2, same solid dispersion formulation): 28%
AUC [8]: 1.43 µg·h/mL
% of dose excreted in faeces [9]: 96.6%
% of dose excreted in urine [9]: 0%
Ctrough ([10]; 3 to <6 years old, post-adjustment 150 mg/60 mg, N 10): 17.5 (139)
Ctrough ([10]; 6 to <9 years old, post-adjustment 200 mg/80 mg, N 9): 20.0 (119)
Ctrough ([10]; 9 to <12 years old, post-adjustment 250 mg/100 mg, N 10): 40.8 (194)
AUC ([10]; blood, 3 to <6 years old, pre-adjustment, 3 sachets, 120 mg/45 mg, read-out: AUC, Geometric Mean): 0.871 µg·h/mL
AUC ([10]; blood, 6 to <9 years old, pre-adjustment, 4 sachets, 160 mg/60 mg, read-out: AUC, Geometric Mean): 0.987 µg·h/mL
AUC ([10]; blood, 9 to <12 years old, pre-adjustment, 5 sachets, 200 mg/75 mg Compound 1/Compound 2, read-out: AUC, Geometric Mean): 1.25 µg·h/mL
AUC ([10]; in vivo, 3 to <6 years old, post-adjustment, 3 sachets, 150 mg/60 mg, N 10, read-out: AUC): 1.66 µg·h/mL
AUC ([10]; in vivo, 6 to <9 years old, post-adjustment, 4 sachets, 200 mg/80 mg, N 9, read-out: AUC): 1.52 µg·h/mL
AUC ([10]; in vivo, 9 to <12 years old, post-adjustment, 5 sachets, 250 mg/100 mg Compound 1/Compound 2, N 10, read-out: AUC): 2.3 µg·h/mL
SMILES: COC(=O)N[C@H](C(=O)N1CCC[C@H]1c1nc2cc([C@H]3CC[C@H](c4cc5nc([C@@H]6CCCN6C(=O)[C@@H](NC(=O)OC)[C@@H](C)OC)[nH]c5cc4F)N3c3cc(F)c(N4CCC(c5ccc(F)cc5)CC4)c(F)c3)c(F)cc2[nH]1)[C@@H](C)OC [Compound 2]
Exposures in children aged 3 to <12 years vs adolescents 12 to <18 years and adults from Phase 2/3 studies ([10]; recommended doses according to body weight): comparable
